According to patent US10618869B2, “Oligo-benzamide compounds and their use” (The Board of Regents of the University of Texas System, priority 2010, dated 2020):

Legend:
prostate cancer cells = assay: Toxicity in vitro and in vivo
Source text: The peptidomimetics of the present invention are non-toxic under in vitro and in vivo conditions. The development of these peptidomimetics represents a quantum leap in the development of a drug to target AR signaling. […] In addition to improvements in the helical face and presentation of the leucines, the inventors have proven efficacy of this system against prostate cancer cell proliferation both in vitro and in vivo. Thus, in contrast to existing technology, the inventors have developed and tested an active peptidomimetic against prostate cancer and other androgen receptor involved cancers.
They have shown that this synthetic peptidomimetic D2 is capable of blocking AR-PELP-1 interaction, nuclear translocation of AR, AR mediated genomic signaling as well as DHT-mediated proliferation of prostate cancer cells in vitro. The IC50 of D2 appears to be around 40 nM. The effect of the D2 peptidomimetic appears to be specific to blocking AR-PELP-1 interaction, as overexpression of AR or PELP-1 may overcome D2-mediated blockade. […] In comparison, administration of either control peptidomimetics or control soluent has no effect on the growth of prostate cancer cells in vitro or in vivo. In addition, the inventors have generated and tested hundreds of variants of D2 and have identified related peptidomimetics with similar or equivalent potency.

erk = erk phosphorylation after serum starvation (western blot, FIG. 16); type: cell-based; conditions: following serum starvation, D1 at higher concentrations (500 nM)
Description: FIG. 16. Evidence for utility of higher concentrations of D1 in blocking erk phosphorylation: following serum starvation, cells were treated with either D1 or D2 and assessed for their ability to block erk phosphorylation.
D2, and to a less extent D1, targets a validated target in prostate cancer, has the potential to be an AR-selective modulator, provides a novel mechanism of action, and will likely provide a sustained effect in the context of therapy.

COC(=O)c1ccc(NC(=O)c2ccc([N+](=O)[O-])c(OCC(C)C)c2)c(OCC(C)C)c1 [D2]
toxicity (prostate cancer cells): non-toxic to prostate cancer cells
erk activation / phosphorylation (erk): blocks at lower concentrations
